Measurements from US9955692B2, “Pyrazoles for controlling invertebrate pests” (BASF SE, priority 2014, dated 2018).

Assays:
Assay type in all cases: in vivo
[1] = system: Vetch aphid (Megoura viciae); experiment: Vetch aphid bean leaf disk microtiter plate test; details: foliar, 144 h, 6 days, assessed on the basis of vital, reproduced aphids, read-out: mortality in comparison with untreated controls
Description: The active compounds were formulated in 3:1 (vol:vol) water:DMSO with different concentrations of formulated compounds.
Bean leaf disks were placed into microtiterplates filled with 0.8% agar-agar and 2.5 ppm OPUS™. The leaf disks were sprayed with 2.5 μl of the test solution and 5 to 8 adult aphids were placed into the microtiter plates which were then closed and kept at 23±1° C. and 50±5% relative humidity under fluorescent light for 6 days. Mortality was assessed on the basis of vital, reproduced aphids. Aphid mortality and fecundity was then visually assessed.

[2] = system: Green peach aphid (Myzus persicae); experiment: Green peach aphid spray test on bell pepper plants; details: 120 h, aphid mortality determined after 5 days, read-out: mortality in comparison with untreated controls
Description: (§1) The active compounds were formulated in cyclohexanone as a 10,000 ppm solution supplied in 1.3 ml ABgene® tubes. These tubes were inserted into an automated electrostatic sprayer equipped with an atomizing nozzle and they served as stock solutions for which lower dilutions were made in 1:1 (vol:vol) water:aceton. A nonionic surfactant (Kinetic®) was included in the solution at a volume of 0.01% (v/v).
Bell pepper plants at the first true-leaf stage were infested prior to treatment by placing heavily infested leaves from the main colony on top of the treatment plants. Aphids were allowed to transfer overnight to accomplish an infestation of 30-50 aphids per plant and the host leaves were removed. The infested plants were then sprayed by an automated electrostatic plant sprayer equipped with an atomizing spray nozzle. The plants were dried in the sprayer fume hood, removed, and then maintained in a growth room under fluorescent lighting in a 24 hour photoperiod at 25° C. and 20-40% relative humidity. Aphid mortality on the treated plants, relative to mortality on untreated control plants, was determined after 5 days.

[3] = system: Cowpea aphid (Aphis craccivora); experiment: Cowpea aphid spray test on potted cowpea plants; details: population reduction assessed after 24, 72 and 120 hours, read-out: mortality in comparison with untreated controls
Description: If not otherwise specified the test solutions were prepared as follows:
The active compound was dissolved at the desired concentration in a mixture of 1:1 (vol:vol) distilled water:aceton. The test solution was prepared at the day of use and in general at concentrations of ppm (wt/vol).
Potted cowpea plants colonized with 100-150 aphids of various stages were sprayed after the pest population had been recorded. Population reduction was assessed after 24, 72, and 120 hours.

[4] = system: Silverleaf whitefly (Bemisia argentifolii, adult); experiment: Silverleaf whitefly test on sprayed cotton plants; details: 72 h, mortality assessed 3 days after treatment, read-out: mortality in comparison with untreated controls
Description: as §1
Cotton plants at the cotyledon stage (one plant per pot) were sprayed by an automated electrostatic plant sprayer equipped with an atomizing spray nozzle. The plants were dried in the sprayer fume hood and then removed from the sprayer. Each pot was placed into a plastic cup and 10 to 12 whitefly adults (approximately 3-5 days […]) were introduced. The insects were collected using an aspirator and 0.6 cm, nontoxic Tygon® tubing (R-3603) connected to a barrier pipette tip. The tip, containing the collected insects, was then gently inserted into the soil containing the treated plant, allowing insects to crawl out of the tip to reach the foliage for feeding. Cups were covered with a reusable screened lid (150-micron mesh polyester screen PeCap from Tetko, Inc.). […] Mortality was assessed 3 days after treatment, compared to untreated control plants.

[5] = system: Cotton aphid (Aphis gossypii, mixed life stages); experiment: Cotton aphid spray test on cotton plants; details: 120 h, aphid mortality determined after 5 days, read-out: mortality in comparison with untreated controls
Description: as §1
Cotton plants at the cotyledon stage were infested with aphids prior to treatment by placing a heavily infested leaf from the main aphid colony on top of each cotyledon. Aphids were allowed to transfer overnight to accomplish an infestation of 80-100 aphids per plant and the host leaf was removed. The infested plants were then sprayed by an automated electrostatic plant sprayer equipped with an atomizing spray nozzle. The plants were dried in the sprayer fume hood, removed from the sprayer, and then maintained in a growth room under fluorescent lighting in a 24-hr photoperiod at 25° C. and 20-40% relative humidity. Aphid mortality on the treated plants, relative to mortality on untreated control plants, was determined after 5 days.

CCC(C)=NOCC(C)n1ncc(C(=O)N(CC)c2ccnnc2)c1C (single isomer, unassigned) [I-9, N-ethyl-5-methyl-1-[1-methyl-2-[1-methyl-propylideneamino]oxy-ethyl]-N-pyridazin-4-yl-pyrazole-4-carboxamide]
≥ 75%: mortality at 2500 ppm [1] | mortality at 300 ppm [2] | mortality at 500 ppm [3] | mortality at 300 ppm [4] | mortality at 300 ppm [5]
